Data set [1] has as its target T1, Cytochrome P450 11A1 (desmolase, cholesterol side-chain cleavage enzyme) (Bos taurus, UniProt P00189).
T1 sequence (P00189 whole entry): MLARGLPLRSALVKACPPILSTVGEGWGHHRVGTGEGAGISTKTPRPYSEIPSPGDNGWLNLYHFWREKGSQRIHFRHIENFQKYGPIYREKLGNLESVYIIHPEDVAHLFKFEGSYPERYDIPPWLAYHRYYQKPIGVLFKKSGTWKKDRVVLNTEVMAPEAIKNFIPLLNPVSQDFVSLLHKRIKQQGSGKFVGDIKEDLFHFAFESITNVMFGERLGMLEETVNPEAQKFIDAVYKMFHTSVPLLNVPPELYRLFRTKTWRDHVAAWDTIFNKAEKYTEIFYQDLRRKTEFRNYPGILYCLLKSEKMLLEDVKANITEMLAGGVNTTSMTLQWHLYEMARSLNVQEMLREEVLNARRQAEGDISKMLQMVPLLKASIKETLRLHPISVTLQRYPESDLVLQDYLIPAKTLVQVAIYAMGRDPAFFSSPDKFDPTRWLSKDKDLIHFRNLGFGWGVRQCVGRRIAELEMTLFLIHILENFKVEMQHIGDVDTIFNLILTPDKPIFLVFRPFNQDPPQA
Nature of the data set: Inhibition of bovine adrenal desmolase cytochrome P450 11A1 at 50 ug/mL. The conditions noted are these: cattle.

For data set [2], the target named is T2, Aromatase (Homo sapiens, UniProt P11511).
T2 sequence (P11511 whole entry): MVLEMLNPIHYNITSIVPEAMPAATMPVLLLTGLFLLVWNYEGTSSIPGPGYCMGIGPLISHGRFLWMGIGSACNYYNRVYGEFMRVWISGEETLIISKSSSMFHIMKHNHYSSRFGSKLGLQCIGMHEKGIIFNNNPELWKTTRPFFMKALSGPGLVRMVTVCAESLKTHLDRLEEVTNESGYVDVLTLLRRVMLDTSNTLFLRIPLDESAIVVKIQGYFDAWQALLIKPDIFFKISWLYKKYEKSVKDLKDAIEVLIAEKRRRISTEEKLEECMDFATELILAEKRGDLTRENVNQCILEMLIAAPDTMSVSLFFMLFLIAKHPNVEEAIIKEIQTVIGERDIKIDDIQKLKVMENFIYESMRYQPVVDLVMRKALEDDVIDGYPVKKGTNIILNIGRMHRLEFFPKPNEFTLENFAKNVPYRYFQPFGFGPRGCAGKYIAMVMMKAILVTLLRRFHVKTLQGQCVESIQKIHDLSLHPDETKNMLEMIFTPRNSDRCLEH
As to the kind of experiment: Inhibition of Cytochrome P450 19A1 at 20 ug/mL.

The target in data set [3] is T3, Cholesterol side-chain cleavage enzyme, mitochondrial (Bos taurus, UniProt P00189).
T3 sequence (P00189 whole entry): T1 sequence (P00189 whole entry)
As to the kind of experiment: Inhibition of bovine adrenal desmolase at 50 ug/mL; None. The conditions noted are these: cattle; at 50 µg/mL.

The target of data set [4] is T2, Aromatase. Nature of the data set: Inhibition of Cytochrome P450 19A1 at 20 ug/mL; None. Conditions: at 20 µg/mL; call rule not given here.

Results on four compounds are retold here after ChEMBL document CHEMBL1123108 (J Med Chem, 1985).

A word on the inhibition: it is the drop in the measured response relative to a control, in per cent.

Regarding `CCC1(c2ccncc2)CCC(=O)N(N)C1=O` (configuration not stated), in data set [1], the inhibition at 50 ug/mL came to 38%. This compound also yielded an inhibition at 20 µg/mL on Aromatase [2] of 27%.

Regarding `CCC1(c2ccncc2)CCC(=O)NC1=O` (configuration not stated) [ROGLETIMIDE], the Inhibition entry in data set [3] is recorded as “Not Active”. Take `CCC1(c2cc[n+]([O-])cc2)CCC(=O)NC1=O` (configuration not stated): the Inhibition entry (in data set [3]; at Aromatase [4]) was “Not Active” in each case. As for `CCC1(c2c(F)c(F)nc(F)c2F)CCC(=O)NC1=O` (configuration not stated), in data set [3], the Inhibition entry is on record as “Not Active”. The compound also yielded an inhibition at 20 µg/mL on Aromatase [2] of 25%.
